Reference: US10954287B2, “Ras binding peptides and methods of use” (Ra Pharmaceuticals, Inc., priority 2016, dated 2021)
*1 amine or outer side, *2 acyl side, *3 side chain or, on linkers, in order; H or OH if unused. Where a SMILES comes first, the peptide text is derived from it. Bridges are numbered along the chain shown (N, C = ends). [ ]: non-standard residue; d: D form. The star is where a group is joined. ξ: configuration not given here. 4‑(dimethylamino)benzoyl‑d4 = DMABZK2: N6-(4-(dimethylamino)benzoyl-2,3,5,6-d4)-L-lysine, [2H]c1c([2H])c(N(C)C)c([2H])c([2H])c1C(=O)*; DAPTZAC3 = (S)-3-(4-(3-acrylamidopropyl)-1H-1,2,3-triazol-1-yl)-2-aminopropanoic acid, C=CC(=O)NCCCc1cn(C[C@H](N[*:1])C(=O)[*:2])nn1; DAPTZAC2 = (S)-3-(4-(2-acrylamidoethyl)-1H-1,2,3-triazol-1-yl)-2-aminopropanoic acid, C=CC(=O)NCCc1cn(C[C@H](N[*:1])C(=O)[*:2])nn1; ADTZPA = (S)-2-amino-3-(1-dodecyl-1H-1,2,3-triazol-4-yl)propanoic acid; m‑xylylene = m-xylylene thioether bridge between Cys; Trp(7-aza) = N[C@@H](Cc1c[nH]c2ncccc12)C(=O)O; NMePhe(4-F) = CN[C@@H](Cc1ccc(F)cc1)C(=O)O; Alexa Fluor 594 = N-terminal label (ALF); mXylylene = c1cc(C[*:1])cc(C[*:2])c1; PEG4 = NCCOCCOCCOCCOCCC(=O)O; Phg = N[C@H](C(=O)O)c1ccccc1; Tle = CC(C)(C)[C@H](N)C(=O)O; ξPhg = NC(C(=O)O)c1ccccc1; NMeA = CN[C@@H](C)C(=O)O; Pra = C#CC[C@H](N)C(=O)O; Nva = CCC[C@H](N)C(=O)O; AEEA = NCCOCCOCC(=O)O; PEG1 = NCCOCCC(=O)O; Ahx = NCCCCCC(=O)O; Ava = NCCCCC(=O)O; Sar = CNCC(=O)O

Legend:
[1] = system: GMPPNP-loaded H-Ras or GTP-loaded K-Ras; assay: Fluorescence polarization competition assay with TAMRA-labeled probe R4007; assay type: binding, human; settings: 120 nM Ras, 30 nM probe R4007, 60 minutes at room temperature; read-out: Probe displacement (nM IC50)
How it was run: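 120 nM GMPPNP-loaded H-Ras or GTP-loaded K-Ras was preincubated with 30 nM TAMRA-labeled R4007 probe for 20 min at room temperature in Tris pH 7.5 buffer with MgCl2, EDTA and Triton X-100. Serially diluted competitor was then added for 60 min. Polarization was read at 535/595 nm, with Ki from a one-site Ki fit and IC50 from probe displacement.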

[2] = system: human lung cancer cell line H358; assay: Cell permeability by monitoring intracellular fluorescence; assay type: cell-based; settings: H358 cells treated 3.5 hours, serum-free media; compared to negative control and scrambled R4007
Protocol: Cell permeability of R4007 (a TAMRA-labeled R4000 derivative) was determined in the human lung cancer cell line H358 (ATCC, Manassas, Va.). Cells were maintained in RPMI-1640 with 10% FBS at 37° C., 95% relative humidity, 5% CO2. For experiments, cells were seeded at 50,000 cells/well in growth media on 96-well glass bottom plates (Greiner, Monroe, N.C.) and incubated 24 hours prior to treatment. Media was removed from cells and replaced with indicated treatment solutions prepared in serum-free media (0.1% DMSO final). Cells were treated for 3.5 hours, then washed 3 times with PBS, fixed with 4% formaldehyde in PBS for 5 minutes at room temperature, and washed 3 times with PBS. Cell nuclei were stained with 1 μg/ml DAPI nuclear stain for 5 minutes at room temperature. Images were captured using a Zeiss Axio Observer inverted microscope with 63× oil objective with excitation 365 nm/emission 445 for DAPI and excitation 565 nm/emission 620 for TAMRA. TAMRA signal was much stronger in cells treated with R4007 as compared to negative control and cells treated with scrambled R4007.

Compound	IC50 [1] [nM]	intracellular TAMRA signal [2]
CCC[C@H](NC(C)=O)C(=O)N[C@H]1CSCc2cccc(c2)CSC[C@@H](C(N)=O)NC(=O)CN(C)C(=O)[C@H](Cc2ccc(F)cc2)N(C)C(=O)[C@H](Cc2ccc(O)cc2)NC(=O)[C@H](Cc2c[nH]c3ncccc23)NC(=O)[C@@H](c2ccccc2)NC(=O)[C@H](C)N(C)C(=O)[C@H](C)NC(=O)[C@H](CCCCN)NC(=O)[C@H](C(C)(C)C)NC(=O)[C@H](Cc2ccc(O)cc2)NC1=O (relative stereo) [Compound R4153, ACE-NVA-CYS*-TYR-TBG-LYS-ALA-NMA-DPHG-7AW-TYR-MFF-SAR-CYS*-NH2]	36400	
C=CC(=O)NCc1cn(C[C@H](NC(=O)[C@H](C)NC(=O)[C@@H](NC(=O)[C@H](Cc2ccc(O)cc2)NC(=O)[C@H](CO)NC(=O)[C@H](CCC)NC(C)=O)C(C)(C)C)C(=O)N(C)[C@@H](C)C(=O)NC(C(=O)N[C@@H](Cc2c[nH]c3ncccc23)C(=O)N[C@@H](Cc2ccc(O)cc2)C(=O)N(C)[C@@H](Cc2ccc(F)cc2)C(=O)N(C)CC(=O)N[C@@H](CO)C(N)=O)c2ccccc2)nn1 (stereo partly drawn) [Compound R4005, ACE-NVA-SER-TYR-TBG-ALA-DAPTZAC1-NMA-RPHG-7AW-TYR-MFF-SAR-SER-NH2]	2070	
CCC[C@H](NC(C)=O)C(=O)N[C@H]1CSCc2cccc(c2)CSC[C@@H](C(=O)N[C@@H](Cc2cn(CCCNC(=O)c3ccc(-c4c5ccc(=[N+](C)C)cc-5oc5cc(N(C)C)ccc45)c(C(=O)[O-])c3)nn2)C(N)=O)NC(=O)CN(C)C(=O)[C@H](Cc2ccc(F)cc2)N(C)C(=O)[C@H](Cc2ccc(O)cc2)NC(=O)[C@H](Cc2c[nH]c3ncccc23)NC(=O)[C@H](c2ccccc2)NC(=O)[C@H](C)N(C)C(=O)[C@H](Cc2cnc[nH]2)NC(=O)[C@H](CCCCN)NC(=O)[C@H](C(C)(C)C)NC(=O)[C@H](Cc2ccc(O)cc2)NC1=O [Compound R4007]		much stronger
C#CC[C@@H]1NC(=O)CN(C)C(=O)[C@H](Cc2ccc(F)cc2)N(C)C(=O)[C@H](Cc2ccc(O)cc2)NC(=O)[C@H](Cc2c[nH]c3ncccc23)NC(=O)[C@H](c2ccccc2)NC(=O)[C@H](C)N(C)C(=O)[C@H](Cc2c[nH]cn2)NC(=O)[C@H](CCCCN)NC(=O)[C@H](C(C)(C)C)NC(=O)[C@H](Cc2ccc(O)cc2)NC(=O)CCCCNC1=O [Compound R4128, APA*-TYR-TBG-LYS-HIS-NMA-PHG-7AW-TYR-MFF-SAR-PRG*] (cyclo([Ava]Y[Tle]KH[NMeA][Phg][Trp(7-aza)]Y[NMePhe(4-F)][Sar][Pra]))	215	
C#CC[C@@H]1NC(=O)CN(C)C(=O)[C@H](Cc2ccc(F)cc2)N(C)C(=O)[C@H](Cc2ccc(O)cc2)NC(=O)[C@H](Cc2c[nH]c3ncccc23)NC(=O)[C@H](c2ccccc2)NC(=O)[C@H](C)N(C)C(=O)[C@H](Cc2c[nH]cn2)NC(=O)[C@H](CCCCN)NC(=O)[C@H](C(C)(C)C)NC(=O)[C@H](Cc2ccc(O)cc2)NC(=O)COCCOCCNC1=O [Compound R4130, PEG1*-TYR-TBG-LYS-HIS-NMA-PHG-7AW-TYR-MFF-SAR-PRG*] (cyclo([AEEA]Y[Tle]KH[NMeA][Phg][Trp(7-aza)]Y[NMePhe(4-F)][Sar][Pra]))	268	
C#CC[C@@H]1NC(=O)CN(C)C(=O)[C@H](Cc2ccc(F)cc2)N(C)C(=O)[C@H](Cc2ccc(O)cc2)NC(=O)[C@H](Cc2c[nH]c3ncccc23)NC(=O)[C@H](c2ccccc2)NC(=O)[C@H](C)N(C)C(=O)[C@H](Cc2c[nH]cn2)NC(=O)[C@H](CCCCN)NC(=O)[C@H](C(C)(C)C)NC(=O)[C@H](Cc2ccc(O)cc2)NC(=O)CCCCCNC1=O [Compound R4137, AHX*-TYR-TBG-LYS-HIS-NMA-PHG-7AW-TYR-MFF-SAR-PRG*] (cyclo([Ahx]Y[Tle]KH[NMeA][Phg][Trp(7-aza)]Y[NMePhe(4-F)][Sar][Pra]))	411	
C#CC[C@@H]1NC(=O)CN(C)C(=O)[C@H](Cc2ccc(F)cc2)N(C)C(=O)[C@H](Cc2ccc(O)cc2)NC(=O)[C@H](Cc2c[nH]c3ncccc23)NC(=O)[C@H](c2ccccc2)NC(=O)[C@H](C)N(C)C(=O)[C@H](Cc2c[nH]cn2)NC(=O)[C@H](CCCCN)NC(=O)[C@H](C(C)(C)C)NC(=O)[C@H](Cc2ccc(O)cc2)NC(=O)CCOCCNC1=O [Compound R4139, AEP*-TYR-TBG-LYS-HIS-NMA-PHG-7AW-TYR-MFF-SAR-PRG*] (cyclo([PEG1]Y[Tle]KH[NMeA][Phg][Trp(7-aza)]Y[NMePhe(4-F)][Sar][Pra]))	522	
ACE-NVA-CYS*-TYR-TBG-DMABZK2-HIS-NMA-PHG-7AW-TYR-MFF-SAR-CYS*-NH2 (Ac-[Nva]CY[Tle]K(4‑(dimethylamino)benzoyl‑d4)H[NMeA][Phg][Trp(7-aza)]Y[NMePhe(4-F)][Sar]C-NH2; linker 2-13 via m‑xylylene) [Compound R4150, cyclized by a m-xylylene thioether bridge]	7640	
ACE-NVA-CYS*-TYR-TBG-LYS-HIS-NMA-PHG-7AW-TYR-MFF-SAR-CYS*-PEG4PA-ADTZPA-NH2 (Ac-[Nva]CY[Tle]KH[NMeA][Phg][Trp(7-aza)]Y[NMePhe(4-F)][Sar]C-{PEG4-ADTZPA-NH2}; linker 2-13 via m‑xylylene) [Compound R4147, cyclized by a m-xylylene thioether bridge]	5190	
ACE-NVA-SER-TYR-TBG-ALA-DAPTZAC2-NMA-RPHG-7AW-TYR-MFF-SAR-SER-NH2 (Ac-[Nva]SY[Tle]A[DAPTZAC2][NMeA][ξPhg][Trp(7-aza)]Y[NMePhe(4-F)][Sar]S-NH2) [Compound R4151, linear]	12200	
ACE-NVA-SER-TYR-TBG-ALA-DAPTZAC3-NMA-RPHG-7AW-TYR-MFF-SAR-SER-NH2 (Ac-[Nva]SY[Tle]A[DAPTZAC3][NMeA][ξPhg][Trp(7-aza)]Y[NMePhe(4-F)][Sar]S-NH2) [Compound R4148, linear]	6000	
ALF-NVA-CYS*-TYR-NVA-PHG-MFF-THR-PRO-7AW-CYS*-7AW-GLU-GLU-NH2 ({Alexa Fluor 594}-[Nva]CY[Nva][Phg][NMePhe(4-F)]TP[Trp(7-aza)]C[Trp(7-aza)]EE-NH2; linker 2-10 via mXylylene) [Compound R4154, cyclized by a m-xylylene thioether bridge]	37400	
